Data reported in ChEMBL document CHEMBL1132469 (J Med Chem, 1999).
pIC50: −log10 of the molar value.

These molecules were tested against T1, Histone deacetylase HD2 (Zea mays, UniProt Q94F81) (assay: Inhibition of maize Histone Deacetylase 2 (HD-2) activity (inactive at 40 uM)).
T1 sequence (Q94F81 whole entry): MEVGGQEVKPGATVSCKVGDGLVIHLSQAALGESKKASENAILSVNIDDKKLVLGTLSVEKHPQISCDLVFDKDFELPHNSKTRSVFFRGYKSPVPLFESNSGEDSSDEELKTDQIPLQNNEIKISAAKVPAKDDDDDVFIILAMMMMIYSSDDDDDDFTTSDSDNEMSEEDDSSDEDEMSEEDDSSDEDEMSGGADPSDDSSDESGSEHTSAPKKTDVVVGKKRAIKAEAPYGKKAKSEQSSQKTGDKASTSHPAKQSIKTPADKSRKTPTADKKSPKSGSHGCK
In the case of `CN(C)c1ccc(C(=O)Nc2ccc(CC(=O)O)cc2)cc1`, the IC50 was “Not Active”.
`O=C(O)CCCCCNC(=O)c1ccccc1` was tested, and the IC50 was “Not Active”.
With `CN(C)c1ccc(C(=O)Nc2ccc(CC(=O)NO)cc2)cc1` the IC50 was “Not Active”.

The molecules below were run against T1, Histone deacetylase HD2 (assay: Inhibition of maize Histone deacetylase 2 (HD-2) activity).
For `CN(C)c1ccc(C(=O)NCc2ccc(C(=O)NO)cc2)cc1`, the pIC50 was 6.74.
For `CN(C)c1ccc(C(=O)NCCCCCCC(=O)NO)cc1`, the pIC50 was 7.00.
Work on `CN(C)c1ccc(C(=O)NCCCCC(=O)NO)cc1` yielded a pIC50 of 5.70.
Molecule `CN(C)c1ccc(C(=O)NCCCCCC(=O)NO)cc1` has a pIC50 of 7.00.
